Among the data in PubChem BioAssay (NCI) are TGI values, retold here.

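Five compound concentrations were applied to cells in 96-well plates for 48 hours; endpoints were derived by simple linear interpolation of the resulting dose-response curve. Definition used: TGI = concentration required for complete inhibition of growth.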 Bounds are passed on as bounds.

Some test systems named below: COLO 205 colon; OVCAR-4 ovarian; A549 NSCLC; HT29 colon; RPMI-8226 leukemia; UACC-257 melanoma; 786-0 renal; U251 CNS; MALME-3M melanoma; HCC-2998 colon; UO-31 renal; MDA-MB-231 breast; DU-145 prostate; SK-OV-3 ovarian; HCT-116 colon; SNB-75 CNS; HOP-62 NSCLC; EKVX NSCLC; SF-539 CNS; HL-60(TB) leukemia.
Assay in all cases: DTP human tumour cell line panel, 48 h

The term TGI denotes the concentration giving total growth inhibition. `Clc1ccc(Nc2nnc(CCCCCCCCc3nnc(Nc4ccc(Cl)cc4)o3)o2)cc1`: the total growth inhibition concentration (TGI) is more than 100 µM with COLO 205 colon; more than 100 µM in the assay on OVCAR-4 ovarian; 89.8 µM with A549 NSCLC; more than 100 µM in the assay with HT29 colon; 79.7 µM in the assay on RPMI-8226 leukemia; more than 100 µM in the assay on UACC-257 melanoma. Further, the TGI was 60.1 µM in the assay on 786-0 renal; more than 100 µM in the assay on U251 CNS; more than 100 µM in the assay with MALME-3M melanoma; more than 100 µM in the assay with HCC-2998 colon; more than 100 µM in the assay with UO-31 renal; more than 100 µM in the assay on MDA-MB-231 breast. For the same compound, the TGI with DU-145 prostate is more than 100 µM; with SK-OV-3 ovarian, more than 100 µM; in the assay with HCT-116 colon, 34.5 µM; in the assay with SNB-75 CNS, more than 100 µM; in the assay on HOP-62 NSCLC it was more than 100 µM; in the assay on EKVX NSCLC it was more than 100 µM.

`CC(C)(C)c1cc(-c2cc(C(C)(C)C)[nH]n2)n[nH]1`: the TGI with COLO 205 colon, with OVCAR-4 ovarian, in the assay on A549 NSCLC, with HT29 colon, in the assay with RPMI-8226 leukemia and in the assay on UACC-257 melanoma was more than 100 µM each time. The TGI in the assay with 786-0 renal, with U251 CNS, in the assay on MALME-3M melanoma, in the assay on HCC-2998 colon, with UO-31 renal and in the assay with MDA-MB-231 breast was more than 100 µM in each case. Also, the total growth inhibition concentration (TGI) in the assay with DU-145 prostate, in the assay on SK-OV-3 ovarian, in the assay with SF-539 CNS, in the assay on HL-60(TB) leukemia, in the assay with HCT-116 colon and in the assay with HOP-62 NSCLC was more than 100 µM in each case. This compound gave a TGI in the assay with EKVX NSCLC of more than 100 µM.

Consider `Clc1c(Cl)c(Cl)c2c(nnn2C2CCCO2)c1Cl` (stereo not drawn), for which the TGI in the assay with COLO 205 colon is 47.4 µM; in the assay with OVCAR-4 ovarian, 54.5 µM; in the assay with A549 NSCLC, 65.1 µM; with HT29 colon, more than 100 µM; in the assay with UACC-257 melanoma, more than 100 µM; in the assay on 786-0 renal, more than 100 µM. Besides, the concentration for total growth inhibition (TGI) with U251 CNS was more than 100 µM; in the assay with MALME-3M melanoma, 80.4 µM; in the assay on HCC-2998 colon, more than 100 µM; with MDA-MB-231 breast, more than 100 µM; in the assay on DU-145 prostate it was more than 100 µM; with SK-OV-3 ovarian, more than 100 µM. Besides, the TGI with SF-539 CNS was more than 100 µM; with HL-60(TB) leukemia, 38.5 µM; with HCT-116 colon, more than 100 µM; with SNB-75 CNS, 40.3 µM; in the assay with HOP-62 NSCLC, more than 100 µM; with EKVX NSCLC, 73.4 µM.

Turning to `O=C1C(C(O)(C(F)(F)Cl)C(F)(F)Cl)CCCC1C(O)(C(F)(F)Cl)C(F)(F)Cl` (stereo not drawn), the TGI in the assay with COLO 205 colon, in the assay on OVCAR-4 ovarian, in the assay on A549 NSCLC, in the assay on HT29 colon, in the assay with UACC-257 melanoma and in the assay on 786-0 renal was more than 10 µM each time. Further, the TGI in the assay with U251 CNS, with MALME-3M melanoma, with HCC-2998 colon, in the assay on MDA-MB-231 breast, in the assay with DU-145 prostate and in the assay on SK-OV-3 ovarian was more than 10 µM throughout. Further, the TGI in the assay on SF-539 CNS, with HCT-116 colon, in the assay with HOP-62 NSCLC and in the assay with EKVX NSCLC was more than 10 µM throughout.

For the compound `CC(C)(C)n1c(=O)n2n(c1=O)Cc1cccc3cccc(c13)C2`, the TGI is 72.3 µM in the assay on COLO 205 colon; 50.3 µM in the assay with OVCAR-4 ovarian; more than 100 µM with A549 NSCLC; 39.7 µM in the assay on HT29 colon; 71.6 µM with RPMI-8226 leukemia; 89.6 µM in the assay on UACC-257 melanoma. In addition, the total growth inhibition concentration (TGI) is 45.1 µM in the assay on 786-0 renal; 33.9 µM in the assay on U251 CNS; 31.7 µM with MALME-3M melanoma; 45.6 µM in the assay with HCC-2998 colon; 53.1 µM with UO-31 renal; more than 100 µM in the assay on MDA-MB-231 breast. The TGI in the assay with DU-145 prostate was more than 100 µM; in the assay on SK-OV-3 ovarian it was 93.3 µM; in the assay with SF-539 CNS it was 36.4 µM; in the assay with HCT-116 colon, 33.8 µM; in the assay on SNB-75 CNS, 66.4 µM; with HOP-62 NSCLC it was 33.2 µM. In the assay on EKVX NSCLC, this compound came in with a TGI of more than 100 µM.

As for `CCN(CC)C(=O)Cn1c(-c2ccccc2)cc2ccccc21`, the TGI is 34 µM in the assay on COLO 205 colon; more than 100 µM in the assay on OVCAR-4 ovarian; more than 100 µM with A549 NSCLC; more than 100 µM in the assay with HT29 colon; more than 100 µM in the assay with UACC-257 melanoma; more than 100 µM in the assay with 786-0 renal. Also, the concentration for total growth inhibition (TGI) with U251 CNS is more than 100 µM; with MALME-3M melanoma it was more than 100 µM; in the assay with HCC-2998 colon, more than 100 µM; in the assay on UO-31 renal, 64.5 µM; in the assay on MDA-MB-231 breast it was more than 100 µM; with DU-145 prostate, more than 100 µM. Also, the TGI with SK-OV-3 ovarian, with SF-539 CNS, with HL-60(TB) leukemia, in the assay with HCT-116 colon, with SNB-75 CNS and with HOP-62 NSCLC was more than 100 µM each time. The TGI in the assay with EKVX NSCLC was more than 100 µM.

Take `CC1=NN(c2nc(N)nc(CBr)n2)C(C)(C)C1`: the concentration for total growth inhibition (TGI) with COLO 205 colon is 9.61 µM; in the assay with OVCAR-4 ovarian it was 20.6 µM; in the assay on A549 NSCLC, 37.1 µM; with HT29 colon, 18.6 µM; in the assay with RPMI-8226 leukemia, 5.61 µM; with UACC-257 melanoma it was 25.2 µM. The concentration for total growth inhibition (TGI) in the assay on 786-0 renal is 1.78 µM; in the assay on U251 CNS, 16.9 µM; in the assay on MALME-3M melanoma, 7.54 µM; in the assay on HCC-2998 colon, 30.6 µM; with UO-31 renal it was 1.61 µM; in the assay on MDA-MB-231 breast, 19.8 µM. For the same compound, the TGI with DU-145 prostate was found to be 12.1 µM; in the assay with SK-OV-3 ovarian, 38.7 µM; in the assay with SF-539 CNS, 5.25 µM; in the assay with HCT-116 colon, 17.4 µM; with SNB-75 CNS it was 21.7 µM; in the assay on HOP-62 NSCLC, 35.1 µM. This compound showed a TGI in the assay with EKVX NSCLC of 15 µM.
